Legend:
Assay type in all cases: biochemical
[1] = target: T1, IKKε (Homo sapiens, UniProt Q14164); test: IKKε kinase test (384-well flashplate); details: 1 nM IKKε, 10 μM ATP, 30° C., 120 min; read-out: IC50 [IKKepsilon]
T1 sequence (Q14164 1-716): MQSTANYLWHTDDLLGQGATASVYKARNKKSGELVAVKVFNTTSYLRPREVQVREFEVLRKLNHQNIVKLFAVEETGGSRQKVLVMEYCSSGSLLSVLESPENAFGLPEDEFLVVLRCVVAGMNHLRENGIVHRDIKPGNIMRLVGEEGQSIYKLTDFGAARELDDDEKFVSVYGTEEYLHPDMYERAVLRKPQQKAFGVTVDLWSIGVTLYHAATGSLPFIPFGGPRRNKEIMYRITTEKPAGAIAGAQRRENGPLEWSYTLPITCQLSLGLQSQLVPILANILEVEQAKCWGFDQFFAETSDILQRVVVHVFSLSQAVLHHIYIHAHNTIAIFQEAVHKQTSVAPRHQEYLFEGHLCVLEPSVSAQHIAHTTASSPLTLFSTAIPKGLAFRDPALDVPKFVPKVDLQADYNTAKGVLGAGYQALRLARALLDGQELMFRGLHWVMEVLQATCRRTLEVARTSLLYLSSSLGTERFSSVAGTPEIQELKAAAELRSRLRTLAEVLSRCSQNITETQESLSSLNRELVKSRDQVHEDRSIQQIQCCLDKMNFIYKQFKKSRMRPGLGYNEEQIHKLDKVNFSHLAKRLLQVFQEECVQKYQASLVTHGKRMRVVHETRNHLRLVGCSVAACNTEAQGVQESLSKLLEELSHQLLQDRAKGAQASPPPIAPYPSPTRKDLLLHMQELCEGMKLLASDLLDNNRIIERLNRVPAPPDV
Protocol: IKKε—Kinase Test (IKKepsilon)
The kinase assay is performed as 384-well flashplate assay.
1 nM IKKε, 800 nM biotinylated IκBα(19-42) peptide (biotin-C6-C6-[…]) and 10 μM ATP (with 0.3 μCi of ^33P-ATP/well) are incubated in a total volume of 50 μl (10 mM MOPS, 10 mM magnesium acetate, 0.1 mM EGTA, 1 mM dithiothreitol, 0.02% of Brij35, 0.1% of BSA, 0.1% of BioStab, pH 7.5) with or without test substance at 30° C. for 120 min. The reaction is stopped using 25 μl of 200 mM EDTA solution, filtered off with suction after 30 min at room temperature, and the wells are washed 3 times with 100 μl of 0.9% NaCl solution. The non-specific proportion of the kinase reaction (blank) is determined using 3 μM EMD 1126352 (BX-795). Radioactivity is measured in the Topcount. IC50 values are calculated using RS1.

[2] = target: T2, PDK1 (Homo sapiens, UniProt O15530); test: Test for the inhibition of PDK1 (384-well flashplate, 33P-ATP); details: His6-PDK1 3.4 nM, 4 μM ATP, 30° C., 60 min
T2 construct: His6 (N)
T2 sequence (O15530 51-556 limits assumed): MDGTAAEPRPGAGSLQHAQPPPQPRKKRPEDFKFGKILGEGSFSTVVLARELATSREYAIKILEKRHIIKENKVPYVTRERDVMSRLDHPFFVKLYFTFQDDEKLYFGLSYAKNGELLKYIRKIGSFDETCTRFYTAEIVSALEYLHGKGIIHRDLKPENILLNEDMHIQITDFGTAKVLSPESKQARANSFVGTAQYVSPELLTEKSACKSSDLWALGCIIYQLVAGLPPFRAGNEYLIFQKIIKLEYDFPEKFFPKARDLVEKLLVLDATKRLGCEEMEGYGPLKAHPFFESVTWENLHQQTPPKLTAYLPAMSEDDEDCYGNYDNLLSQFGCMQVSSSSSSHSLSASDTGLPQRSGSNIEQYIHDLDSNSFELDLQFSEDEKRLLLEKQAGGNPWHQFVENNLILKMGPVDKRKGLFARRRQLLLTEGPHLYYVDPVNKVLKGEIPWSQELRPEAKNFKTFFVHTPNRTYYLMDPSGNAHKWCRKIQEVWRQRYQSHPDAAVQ
Protocol: 4.0 Test for the Inhibition of PDK1
The experimental batches are carried out in a flashplate system with 384 wells/microtitration plate.
In each case, the PDK1 sample His6-PDK1(1-50)(3.4 nM), the PDK1 substrate biotin-bA-bA-[…] (400 nM), 4 μM ATP (with 0.2 μCi of ^33P-ATP/well) and the test substance in 50 μl of conventional experimental solution per well are incubated at 30° C. for 60 min. The test substances are employed in corresponding concentrations (if desired in a dilution series). The control is carried out without test substance. The reaction is stopped using standard methods and washed. The activity of the kinase is measured via the incorporated radioactivity in top count. In order to determine the non-specific kinase reaction (blank value), the experimental batches are carried out in the presence of 100 nM staurosporin.
The radioactivity (decompositions per minute) of the blank value (no use of test substance in the presence of staurosporin) is subtracted from all other radioactivity values. The controls (kinase activity without test substance) are set equal to 100 percent and all other radioactivity values (after subtracting the blank value) are expressed set in relation thereto (for example in % of the control).
IC50 values (50% inhibition) are determined with the aid of statistics programmes, such as, for example, RS1.

[3] = target: T3, TANK binding kinase (TBK1) (Homo sapiens, UniProt Q9UHD2); test: TBK1 kinase test (384-well flashplate); details: 0.6 nM TBK1, 10 μM ATP, 30° C., 120 min
T3 sequence (Q9UHD2 1-729): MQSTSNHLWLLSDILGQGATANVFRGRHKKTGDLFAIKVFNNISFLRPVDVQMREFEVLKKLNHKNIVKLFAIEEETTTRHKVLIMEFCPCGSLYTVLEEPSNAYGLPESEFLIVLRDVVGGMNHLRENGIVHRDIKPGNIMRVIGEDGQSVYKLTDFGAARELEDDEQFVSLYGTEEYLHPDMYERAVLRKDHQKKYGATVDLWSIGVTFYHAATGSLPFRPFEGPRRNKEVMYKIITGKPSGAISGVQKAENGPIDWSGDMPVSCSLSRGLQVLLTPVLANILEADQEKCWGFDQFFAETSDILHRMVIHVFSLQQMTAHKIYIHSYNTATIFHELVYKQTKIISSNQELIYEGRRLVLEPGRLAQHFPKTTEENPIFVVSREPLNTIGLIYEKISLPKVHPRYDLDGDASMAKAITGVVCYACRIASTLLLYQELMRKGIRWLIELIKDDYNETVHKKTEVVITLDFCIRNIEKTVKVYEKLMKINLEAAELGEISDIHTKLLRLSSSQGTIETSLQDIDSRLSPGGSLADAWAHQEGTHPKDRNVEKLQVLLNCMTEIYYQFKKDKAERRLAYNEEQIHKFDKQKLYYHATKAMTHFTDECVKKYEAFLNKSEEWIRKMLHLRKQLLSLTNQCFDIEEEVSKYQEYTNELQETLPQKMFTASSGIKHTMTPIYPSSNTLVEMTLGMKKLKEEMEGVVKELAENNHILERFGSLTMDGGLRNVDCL
Protocol: The kinase assay is performed as 384-well flashplate assay. 0.6 nM TANK binding kinase (TBK1), 800 nM biotinylated MELK-derived peptide (biotin-Ah-Ah-[…]) and 10 μM ATP (with 0.25 μCi of ^33P-ATP/well) are incubated in a total volume of 50 μl (10 mM MOPS, 10 mM magnesium acetate, 0.1 mM EGTA, 1 mM DTT, 0.02% of Brij35, 0.1% of BSA, pH 7.5) with or without test substance at 30° C. for 120 min. The reaction is stopped using 25 μl of 200 mM EDTA solution, filtered off with suction after 30 min at room temperature, and the wells are washed 3 times with 100 μl of 0.9% NaCl solution. The non-specific proportion of the kinase reaction (blank) is determined using 100 nM staurosporine. Radioactivity is measured in the Topcount. IC50 values are calculated using RS1.

IC50 [1] [nM] | IC50 [2] [nM] | IC50 [3] [nM] | SMILES
0.5 to 1000 | 0.5 to 1000 | 0.5 to 1000 | Cn1cc(-c2cnc3[nH]cc(-c4cn(CCN5CCOCC5)nn4)c3c2)cn1 [Compound A18, 5-(1-Methyl-1H-pyrazol-4-yl)-3-[1-(2-morpholin-4-ylethyl)-1H-1,2,3-triazol-4-yl]-1H-pyrrolo[2,3-b]pyridine]
0.5 to 1000 | 0.5 to 1000 | 0.5 to 1000 | Cn1cc(-c2cnc3[nH]cc(-c4cn(CCc5ccccc5)nn4)c3c2)cn1 [Compound A16, 5-(1-Methyl-1H-pyrazol-4-yl)-3-(1-phenethyl-1H-1,2,3-triazol-4-yl)-1H-pyrrolo[2,3-b]-pyridine]

Reference: patent US8541584B2, “3-(1,2,3-triazol-4-yl) pyrrolo [2,3-b] pyridine derivatives” (Merck Patent GmbH, priority 2009, dated 2013)
